One compound from patent US20110262442A1, “COMPOSITIONS FOR TREATING CNS DISORDERS” (Adenios, Inc., priority 2009, published 2011) can be followed below.

For assay [1], the system named is blood brain barrier. As to the kind of experiment: Evans Blue dye extravasation across the blood brain barrier. To be noted: single i.v. injection 100 μl 0.01 nM, 1 h before dye. Type of assay: in vivo, mice. Here is the method: The objective of this experiment was to determine if the blood brain barrier could be modulated by activation of adenosine receptors. NECA is a non-selective adenosine receptor agonist, with similar affinities for A1, A2A and A3 adenosine receptors and a low affinity for the A2b adenosine receptor. In order to determine if activation of adenosine receptors would induce extravasation of Evans Blue dye across the blood brain barrier (BBB), mice were treated with: NECA, a non-selective adenosine receptor agonist (n=5, 100 μl 0.01 nM); SCH58261, an A2A adenosine receptor specific antagonist (n=5, 1 mg/kg); pertussis toxin, an agent known to induce BBB leakiness and as such used as a positive control (n=7, 200 μl); and, PBS as a vehicle control (n=5, 100 μl). CD73^−/− mice, which lack the ability to produce extracellular adenosine, were also treated with NECA (n=4, 100 μl 0.01 nM). Treatments were administered as a single i.v. injection one hour prior to i.v. injection of 200 μl 1% Evans Blue dye ([…] total dye injected). Four hours after administration of Evans Blue, mice were anesthetized with a ketamine/xylazine mix and perfused via the left ventricle with ice cold PBS. […] Following extraction, the tissue/solvent mixture was centrifuged at 500×g for 30 minutes and 100 μl of supernatant was read on a BioTex spectrophotometer at 620 nm. Data is expressed as μg Evans Blue/ml DMF.

Another assay deals with hCMEC/D3 cells. Briefly: cAMP levels in human brain endothelial cells (cAMP Screen kit). It is filed as cell-based. To be noted: 15 minutes treatment, various concentrations (CCPA: at high levels). Here is the method:
Adenosine receptor activation regulates cAMP levels in cells. In order to determine the sensitivity of human brain endothelial cells to adenosine receptor induced cAMP regulation, human brain endothelial cells were cultured with adenosine receptor agonists at various concentrations, followed by cAMP level analysis, as shown in FIG. 13.
HCMECD3 cells were grown to confluencey on 24 well plates. As adenosine receptor (“AR”) stimulation is known to influence cAMP levels, cells were treated with or without various concentrations of NECA (general AR agonist), CCPA (A1 AR agonist), CGS 21860 (A2A AR agonist), DMSO vehicle, or Forksolin (induces cAMP). After 15 minutes, lysis buffer was added and the cells were frozen at −80 C to stop the reaction. Duplicate samples were used for each condition. cAMP levels were assayed using a cAMP Screen kit (Applied Biosystems, Foster City, Calif.).
In general terms: Cyclic AMP is a second messenger, typically raised through Gs and lowered through Gi signalling.

Assay [2] relates to blood brain barrier. As to the kind of experiment: Evans Blue dye extravasation across the blood brain barrier in mice immunized for EAE. It is filed as in vivo. Particulars: WT EAE mice; 100 μl 0.01 nM on day 1, 3, 5, 7, 9; dye on day 10. As for the experimental part: In order to determine if activation of adenosine receptors would induce extravazation of Evans Blue dye across the blood brain barrier (BBB), mice were first treated on day one with NECA, a non-selective adenosine receptor agonist (n=2, 100 μl 0.01 nM); and, PBS as a vehicle control (n=2, 100 μl). On day 2 mice were then immunized with CFA-MOG35-55 and pertussis to induce EAE. Then NECA or PBS was administered every other day on day 3, day 5, day 7 and day 9. On day 10, mice were injected intravenously with 200 μl 1% Evans Blue dye ([…] total dye injected). Six hours after administration of Evans Blue, mice were anesthetized with a ketamine/xylazine mix and perfused via the left ventricle with ice cold PBS. Brains were harvested and homogenized in n,n-dimethylformamide (DMF) at 5 μl/mg (v:w). Tissue was incubated for 72 hours at room temperature in DMF to extract the dye. Following extraction, the tissue/solvent mixture was centrifuged at 500×g for 30 minutes and 100 μl of supernatant was read on a BioTex spectrophotometer at 620 nm.

The test system of assay [3] is blood brain barrier. As to the kind of experiment: Fluorimetric analysis of labeled dextrans in brain after i.v. drug administration. It is filed as in vivo, mice. As for the experimental part: C57BL/6 mice from Jackson Laboratories were used as wild types. All mice used were aged 7-9 weeks and weighed between 20-25 g. All rats were aged 8 weeks and weighed 200-220 g. Mice and rats were bred and housed under specific pathogen-free conditions.
The adenosine receptor agonists NECA, CCPA and CGS 21860 were purchased from Tocris. Each was dissolved in DMSO then diluted in PBS to the desired concentration; in most cases final DMSO concentrations were <0.5% (vol/vol). For vehicle controls, DMSO was diluted in PBS to the same concentration. Dehydrated dextrans labeled with either FITC or Texas Red were purchased from Invitrogen and re-suspended in PBS to 10 mg ml^−1. All experiments involving dextran injection used 0.5 mg dextran in PBS. In experiments where drug and dextran were injected concomitantly, 0.5 mg of dextran was mixed with the drug to the desired concentration in a final volume of 200 μl. All injections were retro-orbital i.v. with a 27-gauge needle. In the SCH 58261 experiment, groups were administered vehicle or SCH 58261 for 4 d. Vehicle/drug and dextrans were injected on day 5 and tissues were collected 3 h after vehicle/drug administration. In Lexiscan experiments, Lexiscan was administered i.v. with 3 injections, 5 min apart and tissues were collected at 15 min unless otherwise indicated.
In dose-response experiments and experiments with the A1 AR and A2A AR knock-out mice, drugs and dextrans were injected concomitantly. After 3 h, the mice were anesthetized with ketamine/xylazine and subjected to a nose cone containing isoflurane. They were perfused with 25-50 ml ice-cold PBS through the left ventricle of the heart then decapitated. Their brains were removed, weighed and frozen for later analysis.
Ice-cold 50 mM Tris-Cl (pH 7.6) was added to frozen brains (100 μl per 100 mg brain) and were to thawed on ice. They were homogenized manually with ˜45 strokes of a dounce homogenizer in plastic 1.5 ml microfuge tubes then spun at 16.1 g in a microfuge for 30 min at room temperature (rt). The supernatants were transferred to new tubes and an equal volume absolute methanol was added. The samples were spun again at 16.1 g for 30 min at rt. Supernatant (200 μl) was transferred to a Corning costar 96 well black polystyrene assay plate (clear bottom). Additionally, a series of standards containing 0.001-10 μg ml^−1 dextran in 50% Tris-Cl/50% absolute methanol (vol/vol) was added to each plate. Absolute concentrations of dextrans were derived from these standard curves. Fluorimetric analysis was performed on a BioTek Synergy 4. FITC-dextran was detected at 488/519 (excitation/emission) and Texas Red-dextran was detected at 592/618.

Where [4] appears, read: WT mice, 3 h after i.v. administration.

For the compound `CCNC(=O)[C@H]1O[C@@H](n2cnc3c(N)ncnc32)[C@H](O)[C@@H]1O` [NECA, 5′-N-ethylcarboxamidoadenosine], the “Evans Blue dye migration across the BBB vs. PBS control” value in the assay with blood brain barrier [1] (CD73−/− mice) is reported as “almost five fold increase”. In addition, in the assay with blood brain barrier [1] (WT mice), the “Evans Blue dye migration across the BBB vs. control mice” value was “increase over control mice”. The cAMP levels result in the assay with hCMEC/D3 cells is recorded as “increased cAMP levels”. For the same compound, in the assay on blood brain barrier [2], the “BBB permeability (Evans Blue dye) over PBS control EAE mice” value is “increase in BBB permeability”. In addition, the “levels of i.v.-administered 10,000 Da dextrans in brain compared to wild type mice” value with blood brain barrier [3] (A1−/− mice, 3 h after i.v. administration) is on record as “significantly lower levels”. In the assay on blood brain barrier [3] (A2A−/− mice, 3 h after i.v. administration), the “levels of i.v.-administered 10,000 Da dextrans in brain compared to wild type mice” value is “significantly lower levels”. Besides, the “time of maximum entry of labeled dextran into the CNS post-treatment” value in the assay with blood brain barrier [3] (WT mice, 10,000 Da FITC-dextran co-administered with drug at T0) lay within 4 to 6 h. In the assay on blood brain barrier [3] (setting [4]), the “CNS entry of 10,000 Da dextrans compared to vehicle” value is given as “dose-dependent increase” and the “CNS entry of 70,000 Da dextrans compared to vehicle” value is listed as “dose-dependent increase”. In the assay with blood brain barrier [3] (WT mice, Texas Red-dextran injected after drug, 19.5 h collection time), the “time post-treatment by which dextran levels returned to baseline” value is on record as no more than 18 h. Further, in the assay on blood brain barrier [3] (WT mice, Texas Red-dextran injected at indicated time after drug, 9.5 h collection time), the “detectable levels of dextran in the brain at 8 h post-treatment” value was “decreased from the maximum”. In addition, the “dose giving maximum entry of dextrans into the CNS” value in the assay on blood brain barrier [3] (WT mice, i.v., 100 μl of 25 μM) was found to be 0.80 µg.
